The results in this text go back to PubChem BioAssay AID493139 (Sanford-Burnham Center for Chemical Genomics, 2011).

The test concerns the target Alkaline phosphatase, germ cell type (Homo sapiens) (UniProt P10696). The test is described as follows: placental-like alkaline phosphatase activators or inhibitors – biochemical, human placental-like ALPPL2 isozyme, selectivity assay for mouse IAP activator project, SAR follow-up (AID 493139). The settings on record: purified human placental-like alkaline phosphatase, enzymatic activity.

Each structure is given as a SMILES string. Activity calls are given as the source filed them. How the calls were made is not given here.

Alkaline phosphatase, germ cell type (Homo sapiens), sequence (P10696 whole entry, looked up): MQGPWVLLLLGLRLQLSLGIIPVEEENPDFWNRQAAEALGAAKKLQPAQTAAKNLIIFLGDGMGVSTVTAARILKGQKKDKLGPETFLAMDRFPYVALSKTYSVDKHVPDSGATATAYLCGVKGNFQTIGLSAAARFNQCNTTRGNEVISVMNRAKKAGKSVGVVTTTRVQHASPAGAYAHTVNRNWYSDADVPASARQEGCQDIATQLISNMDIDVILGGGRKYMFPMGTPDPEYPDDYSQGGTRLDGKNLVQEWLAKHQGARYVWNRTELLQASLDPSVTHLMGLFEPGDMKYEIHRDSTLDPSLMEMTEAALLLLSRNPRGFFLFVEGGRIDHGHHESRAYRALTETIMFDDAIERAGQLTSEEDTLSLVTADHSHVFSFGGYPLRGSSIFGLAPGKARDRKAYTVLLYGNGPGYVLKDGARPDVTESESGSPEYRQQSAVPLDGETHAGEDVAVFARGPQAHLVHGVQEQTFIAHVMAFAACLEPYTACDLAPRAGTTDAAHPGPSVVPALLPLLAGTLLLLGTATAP

For `CC(C(=O)Nc1ccc(C(=O)O)cc1)N1C(=O)/C(=C\c2ccco2)SC1=S` (centres undefined), the IC50 (inhibition of PLAP activity) was 21.9 µM.

On to `O=C(CCNS(=O)(=O)c1ccc2[nH]c(=O)oc2c1)Nc1cccc(-c2ccno2)c1`, for which the IC50 (inhibition of PLAP activity) was > 100 µM (inactive). Consider `O=C(CCCN1C(=O)/C(=C\c2ccco2)SC1=S)Nc1ccc(O)cc1C(=O)O`, for which the IC50 (inhibition of PLAP activity) is > 100 µM (inactive). With `N#Cc1c(SCC(=O)Nc2ccccc2C(F)(F)F)sc2c(O)cc(=O)[nH]c12`, the IC50 (inhibition of PLAP activity) was > 100 µM (inactive). In the case of `CC(C)c1ccc(NC(=O)CCNS(=O)(=O)c2ccc3[nH]c(=O)oc3c2)cc1`, the IC50 (inhibition of PLAP activity) was > 100 µM (inactive). The result for `N#Cc1c(SCC(=O)NCc2ccc3c(c2)OCO3)sc2c(O)cc(=O)[nH]c12` reads > 100 µM (inactive).

On to `Cc1ccc(NC(=O)CCNS(=O)(=O)c2ccc3[nH]c(=O)oc3c2)cc1N(C)C`, for which the IC50 (inhibition of PLAP activity) was > 100 µM (inactive).

Regarding `CC(C(=O)Nc1ccc(C(=O)O)c(O)c1)N1C(=O)/C(=C\c2ccco2)SC1=S` (centres undefined), the IC50 (inhibition of PLAP activity) is 32.6 µM. The result for `COc1cc(C(=O)NNC(=S)NC(=O)c2ccccc2C)cc(OC)c1OC` reads 35.7 µM.

Consider `Cc1ccc(NC(=O)CCNS(=O)(=O)c2ccc3[nH]c(=O)oc3c2)cc1`, for which the IC50 (inhibition of PLAP activity) was > 100 µM (inactive). With `C/C(=N\NC(=O)c1cc(O)c(O)c(O)c1)c1ccncc1`, the IC50 (inhibition of PLAP activity) is > 100 µM (inactive). The result for `Cc1ccc(/C=N/NC(=O)c2cc(O)c(O)c(O)c2)cc1` reads > 100 µM (inactive); that for `S=C(NCCC(c1ccccc1)c1ccccc1)Nc1ccc(Cl)cc1Cl`, 72.1 µM. The result for `CC(C(=O)Nc1cccc(C(=O)O)c1)N1C(=O)/C(=C\c2ccco2)SC1=S` (centres undefined) reads > 100 µM (inactive); that for `O=C(CCN1C(=O)/C(=C/c2ccco2)SC1=S)Nc1ccc(C(=O)O)c(O)c1`, > 100 µM (inactive); that for `O=C(CN1C(=O)/C(=C/c2ccco2)SC1=S)NCCc1ccc(O)cc1`, > 100 µM (inactive).

Take `N#Cc1cccc(NC(=O)CCNS(=O)(=O)c2ccc3[nH]c(=O)oc3c2)c1`: the IC50 (inhibition of PLAP activity) is > 100 µM (inactive). The result for `CCOC(=O)N1CCC(NC(=O)CSc2sc3c(O)cc(=O)[nH]c3c2C#N)CC1` reads > 100 µM (inactive); that for `COc1ccc(NC(=O)CSc2sc3c(O)cc(=O)[nH]c3c2C#N)c(OC)c1`, > 100 µM (inactive).

For the molecule `CN1CCC(=NNC(=O)c2cc(O)c(O)c(O)c2)CC1`, the IC50 (inhibition of PLAP activity) was > 100 µM (inactive). The result for `N#Cc1c(SCC(=O)Nc2nccs2)sc2c(O)cc(=O)[nH]c12` reads > 100 µM (inactive); that for `CCOC(=O)NC(=O)CSc1sc2c(O)cc(=O)[nH]c2c1C#N`, > 100 µM (inactive); that for `O=C(CN1C(=O)/C(=C/c2ccco2)SC1=S)NC1CCS(=O)(=O)C1` (centres undefined), > 100 µM (inactive).

With `O=S(=O)(Nc1ncccn1)c1ccc(NC(=S)NCCC(c2ccccc2)c2ccccc2)cc1`, the IC50 (inhibition of PLAP activity) was > 100 µM (inactive). For the molecule `O=C(CN1C(=O)/C(=C\c2ccco2)SC1=S)Nc1cccc(C(=O)O)c1`, the IC50 (inhibition of PLAP activity) was > 100 µM (inactive). The result for `CC(C(=O)NCCc1ccc(O)c(O)c1)N1C(=O)/C(=C\c2ccco2)SC1=S` (centres undefined) reads > 100 µM (inactive); that for `COc1ccc(Cl)cc1NC(=O)CSc1sc2c(O)cc(=O)[nH]c2c1C#N`, > 100 µM (inactive). For the molecule `O=C(CN1C(=O)/C(=C/c2ccco2)SC1=S)Nc1ccc2nccnc2c1`, the IC50 (inhibition of PLAP activity) is > 100 µM (inactive). For `COc1cc([N+](=O)[O-])ccc1NC(=S)NCCC(c1ccccc1)c1ccccc1`, the IC50 (inhibition of PLAP activity) is > 100 µM (inactive).
